According to US20150018361A1, “ANTI-TUMOR ACTIVITY OF REDUCED FOLATES LIKE METHYLENE-TETRAHYDROFOLATE” (ISOFOL MEDICAL AB, priority 2012, published 2015):
Entries after “also recorded” stand apart in the source; their conditions may differ.

Key:
[1] = in the body; no species or test given; cited from earlier work
[2] = system: HCT116 colorectal carcinoma xenograft; assay: Anti-tumoral efficacy in the HCT116 colorectal carcinoma xenograft model (tumor volume); assay type: in vivo, female NCr nu/nu mice; details: intraperitoneal, 45 mg/kg or 1.7 mg/kg qd x 21, both high and low dose
Procedure: Purpose: To determine the anti-tumoral efficacy of [6R]-methylene-THF in the HCT116 colorectal carcinoma xenograft model. The HCT116 colorectal carcinoma cell line is sensitive to 5-FU and its analog capecitabine.
(§1) Study design: A total of 30 female NCr nu/nu mice (10 per group) at the age of 8-12 weeks were injected with 5×10^6 HCT116 tumor cells in 0% Matrigel sc in flank. When the tumors reached an average size of […] they were administered with intraperitoneal injections of vehicle or [6R]-methylene-THF (Modufolin®), according to the schedule in table 1. Animals were monitored individually. The endpoint of the experiment was when a tumor weight of 1300 mm3 or 65 days was reached, whichever came first. Responders could be followed longer. When the endpoint was reached, the animals were euthanized. Body weight (bw) (g) and tumor volume (mm3) was measured on days 1, 2 (bw only), 3 (bw only), 4, 5 (bw only), 7, 11, 14, 18, 21, 25, 28, 32, 35, 39, 42, 49, 53, 56, 60 and 63.

[3] = Body weight development / tolerability in the HCT116 xenograft study; assay type: in vivo, female NCr nu/nu mice; details: intraperitoneal
Procedure: as §1
Body weight gives an indication on how severe the side effects of the treatment are, poor development of body weight indicating more adverse side effects.

Row | Structure (SMILES) | half life [1] | anti-tumor activity (mean tumor volume over time compared to control) [2] | effect on animal weight ([3]; high-dose (45 mg/kg, qd x 21)) | body weight development compared to the vehicle group ([3]; qd x 21, both dose groups overall) | effect on animal weight ([3]; low-dose (1.7 mg/kg, qd x 21))
1 | Nc1nc2c(c(=O)[nH]1)NC(CNc1ccc(C(=O)N[C@@H](CCC(=O)O)C(=O)O)cc1)CN2 (stereo partly shown) [THF, tetrahydrofolic acid] | approximately 30 min |  |  |  | 
2 | Nc1nc2c(c(=O)[nH]1)N1CN(c3ccc(C(=O)N[C@@H](CCC(=O)O)C(=O)O)cc3)C[C@H]1CN2 [[6R]-methylene-THF, [6R]-5,10-methylenetetrahydrofolic acid] |  | marked influence on tumor volume; also recorded: intrinsic antitumor activity | in line with the vehicle group | slightly positive body weight development | positive effect on animal weight
3 | CN1c2c(nc(N)[nH]c2=O)NCC1CNc1ccc(C(=O)N[C@@H](CCC(=O)O)C(=O)O)cc1 (stereo partly shown) [methyl-THF, 5-methyl-tetrahydrofolic acid] | approximately 5 hours |  |  |  | 
4 | Nc1nc2c(c(=O)[nH]1)N1CN(c3ccc(C(=O)N[C@@H](CCC(=O)O)C(=O)O)cc3)CC1CN2 (stereo partly shown) [methylene-THF, 5,10-methylene-tetrahydrofolic acid] | approximately 20 min |  |  |  | 
